Experimental data reported in US4593104A, “2-halo-N-(azole-1-yl-methyl)-substituted acetanilides” (BASF Aktiengesellschaft, priority 1976, dated 1986).

Tests used:
[1] = system: Alopec. myosur.; assay: preemergence treatment in the greenhouse, % damage; assay type: in vivo
Method in brief: (§1)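 Damage rated on a 0 (none) to 100 (no emergence or total destruction) scale over 4–6 weeks in the greenhouse (15–30 °C or 25–40 °C by species), at rates in kg/ha a.i. Pre-emergence sprays went onto sandy-loam surface right after sowing, pots then watered and hooded; post-emergence sprays hit unhooded plants at 3–10 cm.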

[2] = system: Brassica napus; assay: preemergence treatment in the greenhouse, % damage; assay type: in vivo
Method in brief: as §1

[3] = system: Bromus spp.; assay: preemergence treatment in the greenhouse, % damage; assay type: in vivo
Method in brief: as §1

[4] = system: Cyp. diff.; assay: preemergence treatment in the greenhouse, % damage; assay type: in vivo
Method in brief: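 Sow shallow in sandy loam, spray actives (water vehicle) on soil at once for preemergence, irrigate, hood until rooting; or grow to 3–10 cm and spray unhooded for postemergence. Keep 4–6 weeks at 15–40 °C by species, then score damage 0–100.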

[5] = system: Echin. c.g.; assay: preemergence treatment in the greenhouse, % damage; assay type: in vivo
Method in brief: as §1

[6] = system: Matric. spp.; assay: preemergence treatment in the greenhouse, % damage; assay type: in vivo
Method in brief: as §1

[7] = system: Setaria spp.; assay: preemergence treatment in the greenhouse, % damage; assay type: in vivo
Method in brief: as §1

[8] = system: Solanum nigrum; assay: preemergence treatment in the greenhouse, % damage; assay type: in vivo
Method in brief: as §1

[9] = system: Zea mays; assay: preemergence treatment in the greenhouse, % damage; assay type: in vivo; settings: 0.5 kg/ha
Method in brief: as §1

[10] = system: Arach. hypog.; assay: preemergence treatment in the greenhouse, % damage; assay type: in vivo, Arachis hypogaea
From the text: (§2) The vessels employed were plastic flowerpots having a volume of 300 cm^3; the substrate was a sandy loam containing about 1.5% humus. The seeds of the test plants (see Table 1) were sown shallow, and separated according to species. In the case of Cyperus esculentus, pregerminated tubers were planted. In the preemergence treatment, the active ingredients were then immediately applied to the surface of the soil. They were suspended or emulsified in water as the vehicle, and sprayed through atomizing nozzles. After the agents had been applied, the vessels were lightly sprinkler-irrigated to set germination and growth going, and to activate the chemical agents. The vessels were then covered with transparent plastic hoods until the plants had taken root. This cover ensured uniform germination of the test plants (to the extent that this was not impaired by the chemicals), and prevented readily volatile substances from evaporating.
(§3) For postemergence treatment, the plants were first grown to a height of from 3 to 10 cm, depending on their habit, before treated. Hoods were not placed on the pots. The experiments were set up in the greenhouse, hotter areas (25° to 40° C.) being preferred for heat-loving species, and 15° to 30° C. for plants from moderate climates. The experiments were carried out for from 4 to 6 weeks. During this period the plants were tended and their reaction to the various treatments was assessed. The following tables contain the substances investigated, the application rates in kg/ha of active ingredient, and the test plant species. Assessments were made on a 0 to 100 scale, 0 denoting no damage or normal emergence, and 100 denoting no emergence or complete destruction of at least the visible plant parts.

[11] = system: Carth. tinct.; assay: tolerance by various oil crops in the greenhouse (Table 8), % damage; assay type: in vivo, Carthamus tincotius
From the text: as §2
For postemergence treatment, the plants were first grown to a height of from 3 to 10 cm, depending on their habit, before treated. Hoods were not placed on the pots. The experiments were set up in the greenhouse, hotter areas (25° to 40° C.) being preferred for heat-loving species, and 15° to 30° C. for plants from moderate climates. […] During this period the plants were tended and their reaction to the various treatments was assessed. […]

[12] = system: Brassica napus; assay: as above; assay type: in vivo
From the text: as §2, §3

[13] = system: Glyc. max; assay: as above; assay type: in vivo, Glycine max; settings: varieties: Dare, Lee 68, SRF 450
From the text: as §2, §3

[14] = system: Arach. hypog.; assay: as above; assay type: in vivo, Arachis hypogaea
From the text: as §2, §3

[15] = system: Amar. retro.; assay: herbicidal action in the greenhouse (Table 8), % damage; assay type: in vivo
From the text: as §2, §3

[16] = system: Seta. spp.; assay: as above; assay type: in vivo
From the text: as §2, §3

[17] = system: Solan. nigrum.; assay: as above; assay type: in vivo
From the text: as §2, §3

Q: What does the source list for COc1cc(C)n(CN(C(=O)CCl)c2c(C)cccc2C)n1?
A: % damage ([1]; 0.5 kg/ha): 95%; % damage ([2]; 0.5 kg/ha): 5%; % damage ([3]; 0.5 kg/ha): 95%; % damage ([4]; 0.5 kg/ha): 100%; % damage ([5]; 0.5 kg/ha): 90%; % damage ([6]; 0.5 kg/ha): 95%; % damage ([7]; 0.5 kg/ha): 98%; % damage ([8]; 0.5 kg/ha): 85%; % damage [9]: 20%; % damage ([10]; 0.5 kg/ha): 0%

Q: How did the “% damage” value ([1]; 1.0 kg/ha) turn out when Cc1ncn(CN(C(=O)CCl)c2c(C)cccc2C)n1 was run?
A: 97%

Q: What about the “% damage” value ([2]; 1.0 kg/ha) of the same molecule?
A: 5%

Q: And the “% damage” value ([3]; 1.0 kg/ha)?
A: 98%

Q: What about the “% damage” value ([4]; 1.0 kg/ha) of the same molecule?
A: 100%

Q: What about the “% damage” value ([5]; 1.0 kg/ha) of the same molecule?
A: 100%

Q: And the “% damage” value ([6]; 1.0 kg/ha)?
A: 92%

Q: And the “% damage” value ([7]; 1.0 kg/ha)?
A: 100%

Q: And the “% damage” value ([8]; 1.0 kg/ha)?
A: 100%

Q: What about the “% damage” value ([10]; 1.0 kg/ha) of the same molecule?
A: 0%

Q: For Cc1cccc(C)c1N(Cn1cncn1)C(=O)CCl [Compound 127], which “% damage” value ([11]; 0,5 kg/ha) is on record?
A: 0%

Q: And the “% damage” value ([11]; 1,0 kg/ha)?
A: 0%

Q: And the “% damage” value ([12]; 0,5 kg/ha)?
A: 0%

Q: And the “% damage” value ([12]; 1,0 kg/ha)?
A: 0%

Q: What about the “% damage” value ([12]; 2,0 kg/ha) of the same molecule?
A: 0%

Q: And the “% damage” value ([13]; 0,5 kg/ha)?
A: 0%

Q: What about the “% damage” value ([13]; 1,0 kg/ha) of the same molecule?
A: 0%

Q: What about the “% damage” value ([13]; 2,0 kg/ha) of the same molecule?
A: 0%

Q: And the “% damage” value ([14]; 0,5 kg/ha)?
A: 0%

Q: And the “% damage” value ([14]; 1,0 kg/ha)?
A: 0%

Q: And the “% damage” value ([14]; 2,0 kg/ha)?
A: 10%

Q: What about the “% damage” value ([15]; 0,5 kg/ha) of the same molecule?
A: 82%

Q: And the “% damage” value ([15]; 1,0 kg/ha)?
A: 95%

Q: And the “% damage” value ([15]; 2,0 kg/ha)?
A: 100%

Q: What about the “% damage” value ([16]; 0,5 kg/ha) of the same molecule?
A: 95%

Q: And the “% damage” value ([16]; 1,0 kg/ha)?
A: 100%

Q: What about the “% damage” value ([16]; 2,0 kg/ha) of the same molecule?
A: 100%

Q: What about the “% damage” value ([17]; 0,5 kg/ha) of the same molecule?
A: 70%

Q: What about the “% damage” value ([17]; 1,0 kg/ha) of the same molecule?
A: 90%

Q: And the “% damage” value ([17]; 2,0 kg/ha)?
A: 100%
